# Test results: patent US11179465B2, “Topical compositions comprising a corticosteroid” (PRIMUS PHARMACEUTICALS, INC., priority 2014, dated 2021)
# Legend:
# [1] = Plasma concentrations of clobetasol propionate (PK blood samples); format: in vivo, human
# Protocol: These investigational products were applied twice daily to all affected areas on the body excluding face, scalp, groin, axillae and other intertriginous areas. The subjects had 20 to 50% BSA treated to achieve maximal use exposure. The subjects were visited Screening, Baseline (Day 1), Day 8, Day 15 and Day 43 (if needed to confirm recovery). Clinical determinations of disease severity was conducted using the Investigator Global Assessment (IGA) for overall severity at each visit. Subjects were tested for HPA axis function using the ACTH stimulation test (i.e., a cosyntropin i.v. or i.m. injection) at the Screening Visit (at least 14 days and no more than 28 days prior to Baseline) and at Day 15. In addition, blood samples for serum dehydroepiandrosterone sulfate (DHEAS) was taken at Screening, on Day 8 and at the time of the ACTH stimulation test on Day 15 (pre-test sample) as a secondary measure of HPA axis suppression. At the time of the screening ACTH stimulation test, a PK blood sample was taken to obtain a baseline value (PK screening sample). On Day 15, subjects were applied the last dose of study product at the clinic up to 60 minutes after a pre-treatment PK blood sample was taken (0 hour-Day 15). PK blood samples was then collected at 1, 3 and 6 hours (±5 minutes) after application of the study product.
# Subjects had applied study product to all affected areas except the face, scalp, groin, axillae and other intertriginous areas. The target dose was at least 5 to 7 g per day (1 teaspoon of cream, twice daily, applied at approximately 1 mg/cm2 on 20% BSA—3000 cm2). All baseline affected areas and newly affected areas have been treated until the end of the study even if cleared. The investigator had marked the affected areas (in the source document), updated the marking at each visit, and reminded the subjects where study product was to be applied at each visit using the marking. Study product have been applied directly onto affected areas and rubbed in gently and completely. Study product have been applied after bathing, if applicable.
# HPA axis = conditions: topical; cited from earlier work
# [2] = Average of Post-Treatment, subjects With HPA Axis Suppression
# [3] = Average of Post-Treatment, subjects Without HPA Axis Suppression
# [4] = Day 15: 1 Hour, subjects With HPA Axis Suppression
# [5] = Day 15: 1 Hour, subjects Without HPA Axis Suppression
# [6] = Day 15: 3 Hours, subjects With HPA Axis Suppression
# [7] = Day 15: 3 Hours, subjects Without HPA Axis Suppression
# [8] = Day 15: 6 Hours, subjects With HPA Axis Suppression
# [9] = Day 15: 6 Hours, subjects Without HPA Axis Suppression
# [10] = Day 15: Pre-Treatment (0 hour), subjects With HPA Axis Suppression
# [11] = Day 15: Pre-Treatment (0 hour), subjects Without HPA Axis Suppression
# [12] = Screening, subjects With HPA Axis Suppression (both creams pooled)
# [13] = Screening, subjects Without HPA Axis Suppression (both creams pooled)
structure (smiles),measurement,setting,value
"CCC(=O)O[C@]1(C(=O)CCl)[C@@H](C)C[C@H]2[C@@H]3CCC4=CC(=O)C=C[C@]4(C)[C@@]3(F)[C@@H](O)C[C@@]21C [Clobetasol Propionate, [17-(2′-chloroacetyl)-9-fluoro-11-hydroxy-10,13,16-trimethyl-3-oxo-6,7,8,11,12,14,15,16-octahydrocyclopenta[a]phenanthren-17-yl] propanoate]","Plasma Concentration of Clobetasol Propionate, Mean ± SD",[1]; [2],0.217123 ± 0.1537979 ng/mL
same,"Plasma Concentration of Clobetasol Propionate, Median",[1]; [2],0.185565 ng/mL
same,"Plasma Concentration of Clobetasol Propionate, Mean ± SD",[1]; [3],0.071244 ± 0.1060424 ng/mL
same,"Plasma Concentration of Clobetasol Propionate, Median",[1]; [3],0.03174 ng/mL
same,"Plasma Concentration of Clobetasol Propionate, Mean ± SD",[1]; [4],0.210873 ± 0.1962904 ng/mL
same,"Plasma Concentration of Clobetasol Propionate, Median",[1]; [4],0.15588 ng/mL
same,"Plasma Concentration of Clobetasol Propionate, Mean ± SD",[1]; [5],0.081012 ± 0.1512306 ng/mL
same,"Plasma Concentration of Clobetasol Propionate, Median",[1]; [5],0.03173 ng/mL
same,"Plasma Concentration of Clobetasol Propionate, Mean ± SD",[1]; [6],0.200668 ± 0.1260445 ng/mL
same,"Plasma Concentration of Clobetasol Propionate, Median",[1]; [6],0.19545 ng/mL
same,"Plasma Concentration of Clobetasol Propionate, Mean ± SD",[1]; [7],0.067637 ± 0.1039073 ng/mL
same,"Plasma Concentration of Clobetasol Propionate, Median",[1]; [7],0.033185 ng/mL
same,"Plasma Concentration of Clobetasol Propionate, Mean ± SD",[1]; [8],0.205386 ± 0.1474279 ng/mL
same,"Plasma Concentration of Clobetasol Propionate, Median",[1]; [8],0.17805 ng/mL
same,"Plasma Concentration of Clobetasol Propionate, Mean ± SD",[1]; [9],0.065451 ± 0.0915422 ng/mL
same,"Plasma Concentration of Clobetasol Propionate, Median",[1]; [9],0.03626 ng/mL
same,"Plasma Concentration of Clobetasol Propionate, Mean ± SD",[1]; [10],0.195691 ± 0.1507514 ng/mL
same,"Plasma Concentration of Clobetasol Propionate, Median",[1]; [10],0.13649 ng/mL
same,"Plasma Concentration of Clobetasol Propionate, Mean ± SD",[1]; [11],0.055406 ± 0.1003403 ng/mL
same,"Plasma Concentration of Clobetasol Propionate, Median",[1]; [11],0.02623 ng/mL
same,"Plasma Concentration of Clobetasol Propionate, Mean ± SD",[1]; [12],0 ± 0 ng/mL
same,"Plasma Concentration of Clobetasol Propionate, Median",[1]; [12],0 ng/mL
same,"Plasma Concentration of Clobetasol Propionate, Mean ± SD",[1]; [13],0.001282 ± 0.0075844 ng/mL
same,"Plasma Concentration of Clobetasol Propionate, Median",[1]; [13],0 ng/mL
same,"Mean plasma clobetasol levels, subjects with HPA axis suppression relative to those without","[1]; Table 8, both creams pooled",more than 3 times
same,Lowest dose at which the HPA axis is suppressed,HPA axis,2 grams per day
